Assay results published in patent publication US6110933A, “Amino acid derivatives and their use as phospholipase A2 inhibitor” (Fujisawa Pharmaceutical Co., Ltd., priority 1994, dated 2000).

What was measured:
PLA2 group II = experiment: Inhibition of PLA2 group II; assay type: biochemical; details: no concentration or figure given
PLA2 group I = experiment: Test on the inhibitory effect against phospholipase A2 (PLA2); assay type: biochemical; details: 83 ng/ml; PLA2 group I from porcine pancreas; preincubated with enzyme at 37° C. for 30 minutes; 5 μM [14C]phosphatidylcholine, pH 7.4
Experimental: Test on the inhibitory effect against phospholipase A2 (PLA2)
The substrate, [^14 C]phosphatidylcholine (L-3-phosphatidylcholine, 1-stearyl-2-[1-^14 C]arachidonyl, was dried under N2 gas and suspended in deionized water with a probe sonicater. The standard reaction mixture in a total volume of 800 μl contained Tris-HCl buffer (10 mM, pH 7.4), CaCl2 (5 mM) and 10 ng/ml enzyme, PLA2 group I (from porcine pancreas, 700 units/mg, Boehringer Mannheim Yamanouchi Co., Ltd.). The reaction was started by addition of 5 μM [^14 C]phosphatidylcholine (L-3-phosphatidylcholine, 1-stearyl-2-[1-^14 C]arachidonyl to the enzyme solution. Following incubation at 37° C. for 30 minutes, the reaction was terminated by addition of 2 ml of Dole's reagent^1). To determine the release of ^14 C-arachidonic acid from the phospholipid substrate, free fatty acid was extracted by the method of Natori et al^2), and counted in 8 ml of Liquifluor (Du Pont, New England Nuclear). On the inhibition assay, inhibitor or vehicle was preincubated with enzyme at 37° C. for 30 minutes. Each sample was dissolved in methanol (1.25% final). All data are the average of at least duplicate determinations corrected for none enzymatic hydrolysis. Data were expressed as percent inhibition.

Percent inhibition (PLA2 group I): 87.1%
SMILES: CCCCCCCCCCCCC[C@@H](CC(N)=O)OC(=O)[C@H](CCCC(=O)O)NC(=O)c1ccc(OC)cc1 [Example 9, (3S)-3-[(2S)-5-Carboxy-2-(p-methoxybenzoylamino)-pentanoyl]oxyhexadecanamide]
inhibition of PLA2 group II (PLA2 group II): inhibited
